PubChem BioAssay (NCI)
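Tested at 5 concentrations; 48 h exposure; 96-well plates; endpoints linearly interpolated, else capped at highest concentration. TGI: total growth inhibition.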

How the values were obtained:
Experiment in all cases: NCI anticancer screen, dose series, 48 h
HL-60(TB) leukemia = system: HL-60(TB) leukemia
ACHN renal = system: ACHN renal
MALME-3M melanoma = system: MALME-3M melanoma
SN12C renal = system: SN12C renal
HT29 colon = system: HT29 colon
SF-295 CNS = system: SF-295 CNS
MDA-N = system: MDA-N
HS 578T breast = system: HS 578T breast
BT-549 breast = system: BT-549 breast
MDA-MB-231 breast = system: MDA-MB-231 breast
CCRF-CEM leukemia = system: CCRF-CEM leukemia
SNB-75 CNS = system: SNB-75 CNS
CAKI-1 renal = system: CAKI-1 renal
LOX IMVI melanoma = system: LOX IMVI melanoma
OVCAR-3 ovarian = system: OVCAR-3 ovarian
OVCAR-4 ovarian = system: OVCAR-4 ovarian
HCC-2998 colon = system: HCC-2998 colon
DU-145 prostate = system: DU-145 prostate
SF-539 CNS = system: SF-539 CNS

Compound	TGI (HL-60(TB) leukemia) [µM]	TGI (ACHN renal) [µM]	TGI (MALME-3M melanoma) [µM]	TGI (SN12C renal) [µM]	TGI (HT29 colon) [µM]	TGI (SF-295 CNS) [µM]	TGI (MDA-N) [µM]	TGI (HS 578T breast) [µM]	TGI (BT-549 breast) [µM]	TGI (MDA-MB-231 breast) [µM]	TGI (CCRF-CEM leukemia) [µM]	TGI (SNB-75 CNS) [µM]	TGI (CAKI-1 renal) [µM]	TGI (LOX IMVI melanoma) [µM]	TGI (OVCAR-3 ovarian) [µM]	TGI (OVCAR-4 ovarian) [µM]	TGI (HCC-2998 colon) [µM]	TGI (DU-145 prostate) [µM]	TGI (SF-539 CNS) [µM]
COC1/C=C/C=C(/C)Cc2cc(O)c(Cl)c(c2)N(C)C(=O)CC(OC(=O)C(C)C)C2(C)OC2C(C)C2CC1(O)NC(=O)O2 (stereo unspecified)	> 100	> 100	> 100	> 44.7	< 0.01	> 100	< 0.01	> 100	49.4	> 42.3	> 100	2.08	> 100	> 100	> 100	< 0.01			
O=c1cc(-c2ccccc2)[nH]c2ncccc12		> 100	> 100		0.426	0.269			> 100	> 26.7	> 100		> 100	> 100	> 100	> 100	> 42	> 100	
O=C(CN1CCCC1=O)CS(=O)(=O)c1ccccc1	> 100	> 100	> 100		> 100	> 100	> 100	> 100	> 100		> 100	> 100		> 100	> 100		> 100	> 100	> 100
CNC(=O)N(CCC#N)CCN(C(=O)NC)c1ccccc1		> 100	> 100	> 100	> 100	> 100	> 100		> 100	> 100	> 100	> 100	> 100	> 100	> 100	> 100	> 100	> 100	> 100
CN(C)Cc1c(O)ccc2c1c1c(n2C)C(=O)c2ccccc2C1=O	> 100	> 100	15.5	> 100	5.19	84.6		> 100	42.1	> 100	> 100	51.8	70.3	18.6	48.4	32.3	13.9	> 100	> 100
Cc1c(C(=O)O)n2c(=S)[nH]nc2c2ccccc12	> 100	> 100		> 100	> 100	> 100	> 100	> 100		> 100	> 100		> 100	> 100	> 100	> 100	> 100	> 100	> 100
COC(C/C(=C/CO[Si](C(C)C)(C(C)C)C(C)C)C(=O)N(C(=O)OC(C)(C)C)c1ccccc1I)OC		> 100		> 100	> 100	41	> 100	> 100				> 100	> 100	49.8	> 100	> 100	> 100	> 100	
Cc1ccc(Cc2cc(N3CCN(c4cccc(Cl)c4)CC3)nnc2C)cc1		> 100		> 100	81.2	> 100	> 100	> 100	> 100	> 100		> 100	> 100		> 100	> 100		> 100	> 100
Cc1ccccc1NC(=O)Cc1csc(N/N=C2\NC(=O)/C(=C/c3cccc([N+](=O)[O-])c3)S2)n1	39.5	28.9		> 100	> 100	41.8	> 100			57.3		34	35.7	> 100	52.3	44.2	27.3	> 100	33.4
CSc1cc(Cl)c(C)cc1S(=O)(=O)NC(=O)NNc1ccc(F)cc1		> 100	> 100	> 100	> 100	> 100	> 100	> 100		> 100		> 100	> 100	> 100	> 100	> 100	> 100	> 100	> 100
CCn1c2nc(=O)n(CCCCCCCCSC(c3ccccc3)(c3ccccc3)c3ccccc3)c(=O)c-2nc2ccccc21	6.51	60.8			18.1	> 100	> 100	> 100		> 100	> 100		> 100	> 100	> 100	> 100	19.6	> 100	> 100
O=C1c2cc(I)ccc2N2CCN=C2N1Cc1ccccc1	> 100	> 100	> 100	> 100	> 100	> 100		> 100	> 100	> 100	> 100	39.7	> 100	> 100	> 100	> 100		> 100	> 100
O=c1[nH]c(=O)c2ncn(-c3ccc([N+](=O)[O-])cn3)c2[nH]1	> 100	> 100		> 100	> 100	> 100			> 100	> 100	> 100	> 100	> 100	> 100	> 100	> 100	> 100	> 100	> 100
